# Where a SMILES comes first, the peptide text is derived from it. The star is where a group is joined. pNA = O=[N+]([O-])c1ccc(N*)cc1; Cbz = O=C(OCc1ccccc1)*
# Key:
# Assay in all cases: Activity assay to determine kinetic constants
# Assay type in all cases: biochemical
# [1] = target: Atlantic cod (Gadus morhua) trypsin I (SEQ ID NO: 1) variant EZA-006, K133E (Gadus morhua, UniProt P16049, K152E)
# Excerpt: (§1) The following polypeptides were obtained or produced: • (a) Wldtype trypsin I purified from Atlantic cod (“WT-Tryp” or “wildtype”); • (b) Recombinantly expressed wildtype trypsin I of Atlantic cod (SEQ ID NO:1, “R-Tryp”); and • (c) Thirty-eight different mutated versions of trypsin I of Atlantic cod (i.e. mutated sequences of SEQ ID NO:1).
# (§2) Polypeptides corresponding to the wildtype amino acid sequence of trypsin I from Atlantic cod and thirty-eight mutated versions thereof were produced using the methods described in Example C.
# (§3) Activation of recombinant enzymes (approximately 0.01 mg/ml) was achieved by adding wild type trypsin (0.2 U/ml) at room temperature and incubate for 24 hours. The mixture was made in 20 mM Tris-HCl, 1 mM CaCl2, 50% glycerol, pH 8.0 to a final volume of 200 μl.
# (§4) The substrate (Gly-Pro-Arg) was used at concentrations 0.005-0.15 mM in assay buffer containing 1% DMSO. 245 μL of substrate solutions were pipetted into a 96-well plate. The reaction was started by adding 5 μL of the sample mixture (above) and monitored at 410 nm in a SpectraMax plate reader. Kinetic measurement was performed every minute of a continuous 15-min run.
# [2] = target: Atlantic cod (Gadus morhua) trypsin I (SEQ ID NO: 1) variant EZA-007, N80T (Gadus morhua, UniProt P16049, N99T)
# Excerpt: as §1, §2, §3, §4
# [3] = target: Atlantic cod (Gadus morhua) trypsin I (SEQ ID NO: 1) variant EZA-004, K133L (Gadus morhua, UniProt P16049, K152L)
# Excerpt: as §1, §2, §3, §4
# [4] = target: T1, Atlantic cod (Gadus morhua) trypsin I, wildtype, purified from Atlantic cod (WT-Trp), SEQ ID NO: 1 (Gadus morhua, UniProt P16049); settings: reference
# T1 sequence (P16049 20-241): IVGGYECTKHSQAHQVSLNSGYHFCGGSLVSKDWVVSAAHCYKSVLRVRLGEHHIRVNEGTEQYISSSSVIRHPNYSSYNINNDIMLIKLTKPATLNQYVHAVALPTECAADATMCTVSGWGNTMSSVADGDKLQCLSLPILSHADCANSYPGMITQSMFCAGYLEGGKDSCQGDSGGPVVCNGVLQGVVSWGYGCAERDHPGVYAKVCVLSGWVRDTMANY
# Excerpt: as §1, §2, §3, §4
# [5] = target: Atlantic cod (Gadus morhua) trypsin I (SEQ ID NO: 1) variant EZA-009, L165G, P202Y (Gadus morhua, UniProt P16049, L184G/P221Y)
# Excerpt: as §1, §2, §3, §4
# [6] = target: Atlantic cod (Gadus morhua) trypsin I (SEQ ID NO: 1) variant EZA-003, K133T (Gadus morhua, UniProt P16049, K152T)
# Excerpt: as §1, §2, §3, §4
# [7] = target: T2, Atlantic cod (Gadus morhua) trypsin I, recombinant wildtype EZA-001 (no mutations), SEQ ID NO: 1 (Gadus morhua, UniProt P16049)
# T2 construct: mature trypsin from MEEDK-zymogen
# T2 sequence (P16049 20-241): T1 sequence (P16049 20-241)
# Excerpt: as §1, §2, §3, §4
# [8] = target: Atlantic cod (Gadus morhua) trypsin I (SEQ ID NO: 1) variant EZA-002, D217S, T218N, S69K (Gadus morhua, UniProt P16049, D236S/S88K/T237N)
# Excerpt: as §1, §2, §3, §4
# [9] = target: Atlantic cod (Gadus morhua) trypsin I (SEQ ID NO: 1) variant EZA-005, K133V (Gadus morhua, UniProt P16049, K152V)
# Excerpt: as §1, §2, §3, §4
# [10] = target: Atlantic cod (Gadus morhua) trypsin I (SEQ ID NO: 1) variant EZA-008, I81L (Gadus morhua, UniProt P16049, I100L)
# Excerpt: as §1, §2, §3, §4
# Atlantic cod (Gadus morhua) trypsin I (SEQ ID NO: 1) variant EZA-005, K133V, sequence (P16049 20-241 K152V): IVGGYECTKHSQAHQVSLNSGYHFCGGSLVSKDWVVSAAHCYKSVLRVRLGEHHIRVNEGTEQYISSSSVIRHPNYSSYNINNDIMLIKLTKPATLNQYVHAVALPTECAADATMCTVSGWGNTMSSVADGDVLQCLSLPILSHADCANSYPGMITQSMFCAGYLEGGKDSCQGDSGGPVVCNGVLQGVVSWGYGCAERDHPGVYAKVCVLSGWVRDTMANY
# Atlantic cod (Gadus morhua) trypsin I (SEQ ID NO: 1) variant EZA-004, K133L, sequence (P16049 20-241 K152L): as the sequence (P16049 20-241 K152V) above, with V133L counted along it
# Atlantic cod (Gadus morhua) trypsin I (SEQ ID NO: 1) variant EZA-007, N80T, sequence (P16049 20-241 N99T): as the sequence (P16049 20-241 K152V) above, with N80T, V133K counted along it
# Atlantic cod (Gadus morhua) trypsin I (SEQ ID NO: 1) variant EZA-002, D217S, T218N, S69K, sequence (P16049 20-241 S88K/D236S/T237N): as the sequence (P16049 20-241 K152V) above, with S69K, V133K, D217S, T218N counted along it
# Atlantic cod (Gadus morhua) trypsin I (SEQ ID NO: 1) variant EZA-006, K133E, sequence (P16049 20-241 K152E): as the sequence (P16049 20-241 K152V) above, with V133E counted along it
# Atlantic cod (Gadus morhua) trypsin I (SEQ ID NO: 1) variant EZA-003, K133T, sequence (P16049 20-241 K152T): as the sequence (P16049 20-241 K152V) above, with V133T counted along it
# Atlantic cod (Gadus morhua) trypsin I (SEQ ID NO: 1) variant EZA-009, L165G, P202Y, sequence (P16049 20-241 L184G/P221Y): as the sequence (P16049 20-241 K152V) above, with V133K, L165G, P202Y counted along it
# Atlantic cod (Gadus morhua) trypsin I (SEQ ID NO: 1) variant EZA-008, I81L, sequence (P16049 20-241 I100L): as the sequence (P16049 20-241 K152V) above, with I81L, V133K counted along it
structure (smiles),measurement,setting,value
"N=C(N)NCCC[C@H](NC(=O)[C@@H]1CCCN1C(=O)CNC(=O)OCc1ccccc1)C(=O)Nc1ccc([N+](=O)[O-])cc1 [Gly-Pro-Arg, Cbz-Gly-Pro-Arg-p-nitroanilide] (Cbz-Gly-Pro-Arg-pNA)","Vmax, relative to WT-Trp",[1],98
same,"Vmax, relative to WT-Trp",[2],99
same,"Vmax, relative to WT-Trp",[3],82
same,"Vmax (Kcat), relative to WT-Trp",[4],100
same,"Vmax, relative to WT-Trp",[5],98
same,"Vmax, relative to WT-Trp",[6],96
same,"Vmax, relative to WT-Trp",[7],99
same,"Vmax, relative to WT-Trp",[8],99
same,"Vmax, relative to WT-Trp",[9],96
same,"Vmax, relative to WT-Trp",[10],95
